{"source": "patent US20070049593A1", "about": "(priority 2004, published 2007)", "note": "Where a name gives a salt, the structure may show the parent alone.", "data": [{"target": "T1, HCV polymerase (Hepatitis C virus genotype 1b, UniProt P26663)", "T1 construct": "a region encoding NS5B (J Virol 1991 March, 65(3), 1105-13, 544 amino acids after deletion of 47 amino acids on the C-terminal); 6xHis (C); made in house; host or cells: Escherichia coli", "T1 sequence (P26663 2420-2963)": "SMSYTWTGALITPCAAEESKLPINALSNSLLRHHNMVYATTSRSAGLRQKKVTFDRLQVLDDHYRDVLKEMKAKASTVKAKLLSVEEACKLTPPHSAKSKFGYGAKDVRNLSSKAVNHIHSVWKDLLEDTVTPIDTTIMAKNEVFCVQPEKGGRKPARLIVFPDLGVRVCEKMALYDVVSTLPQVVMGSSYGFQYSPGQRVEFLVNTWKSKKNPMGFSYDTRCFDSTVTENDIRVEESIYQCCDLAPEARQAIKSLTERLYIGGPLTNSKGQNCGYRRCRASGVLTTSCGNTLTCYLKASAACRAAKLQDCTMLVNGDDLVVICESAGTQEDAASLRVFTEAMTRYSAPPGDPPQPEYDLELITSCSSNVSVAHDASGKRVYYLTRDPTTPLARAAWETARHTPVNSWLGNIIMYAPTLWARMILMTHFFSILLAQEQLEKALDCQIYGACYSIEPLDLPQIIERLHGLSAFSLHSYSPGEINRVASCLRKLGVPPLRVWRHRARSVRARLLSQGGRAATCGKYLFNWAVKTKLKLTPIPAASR", "assay": "biochemical", "set-up": "species or system HCV BK strain", "conditions": "not given", "method_in_brief": "(§1)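 Recombinant HCV BK-strain NS5B (C-terminal 47 aa deleted, His6-tagged, E. coli), 0.5 μg/ml, run with 5 μg/ml in vitro-transcribed RNA template (polyU/3′X), ATP/GTP/CTP 50 μM, UTP 2 μM plus [3H]UTP, pH 7.5, 25° C, 90 min. TCA-precipitated RNA counted by scintillation; IC50 from activity with vs without compound.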", "units": {"IC50": "nM"}, "values": [{"compound": "COc1ccc2c(c1)OCCn1c-2c(C2CCCCC2)c2ccc(C(=O)NC3(C(=O)Nc4ccc(/C=C/C(N)=O)cc4)CCC3)cc21", "note": "[Example 2-543, N-{1-[4-((E)-2-carbamoylvinyl)phenylcarbamoyl]cyclobutyl}-12-cyclohexyl-3-methoxy-6,7-dihydro-5-oxa-7a-azadibenzo[a,e]azulene-9-carboxamide]", "IC50": "< 100"}, {"compound": "CCN1CCN(C(=O)CN2CCn3c(c(C4CCCCC4)c4ccc(C(=O)O)cc43)-c3ccc(C)cc32)CC1", "note": "[Example 1-117, 13-cyclohexyl-5-[2-(4-ethylpiperazin-1-yl)-2-oxoethyl]-3-methyl-6,7-dihydro-5H-benzo[5,6][1,4]diazepino[7,1-a]indole-10-carboxylic acid dihydrochloride]", "IC50": "< 100"}, {"compound": "Cc1ccc2c(c1)N(CCN1CCOCC(C)C1)CCn1c-2c(C2CCCCC2)c2ccc(C(=O)O)cc21", "note": "(stereo not drawn) [Example 1-532, 13-cyclohexyl-3-methyl-5-[2-(6-methyl-1,4-oxazepan-4-yl)ethyl]-6,7-dihydro-5H-benzo[5,6][1,4]diazepino[7,1-a]indole-10-carboxylic acid dihydrochloride]", "IC50": "< 100"}, {"compound": "O=C(O)c1ccc2c(C3CCCCC3)c3n(c2n1)CCOc1cc(OCc2cc(N4CCCC4=O)ccc2N2CCOCC2)ccc1-3", "note": "[Example 7-4, 12-cyclohexyl-3-[2-(morpholin-4-yl)-5-(2-oxopyrrolidin-1-yl)benzyloxy]-6,7-dihydro-5-oxa-7a,8-diazadibenzo[a,e]azulene-9-carboxylic acid dihydrochloride]", "IC50": "< 100"}, {"compound": "O=C(O)c1ccc2c(C3CCCCC3)c3n(c2c1)CCOc1cc(Oc2ccc(Cl)cc2)ccc1-3", "note": "[Example 2-31, 3-(4-chlorophenoxy)-12-cyclohexyl-6,7-dihydro-5-oxa-7a-azadibenzo[a,e]azulene-9-carboxylic acid]", "IC50": "< 100"}, {"compound": "CN1CCn2c(c(C3CCCCC3)c3ccc(C(=O)O)cc32)-c2ccc(OCc3ccccc3)cc21", "note": "[Example 1-593, 3-benzyloxy-13-cyclohexyl-5-methyl-6,7-dihydro-5H-benzo[5,6][1,4]diazepino[7,1-a]indole-10-carboxylic acid]", "IC50": "< 100"}, {"compound": "COC(=O)N1CCCC(Oc2ccc3c(c2)OCCn2c-3c(C3CCCCC3)c3ccc(C(=O)O)cc32)C1", "note": "(stereo not drawn) [Example 2-24, 12-cyclohexyl-3-(1-methoxycarbonylpiperidin-3-yloxy)-6,7-dihydro-5-oxa-7a-azadibenzo[a,e]azulene-9-carboxylic acid]", "IC50": "< 100"}, {"compound": "CN(CCN1CCn2c(c(C3CCCCC3)c3ccc(C(=O)O)cc32)-c2ccccc21)C1CCOCC1", "note": "[Example 1-283, 13-cyclohexyl-5-{2-[N-methyl-N-(tetrahydropyran-4-yl)amino]ethyl}-6,7-dihydro-5H-benzo[5,6][1,4]diazepino[7,1-a]indole-10-carboxylic acid]", "IC50": "< 100"}, {"compound": "CN1CCC(OCCOc2cccc3c2OCCn2c-3c(C3CCCCC3)c3ccc(C(=O)O)cc32)CC1", "note": "[Example 2-467, 12-cyclohexyl-4-[2-(1-methylpiperidin-4-yloxy)ethoxy]-6,7-dihydro-5-oxa-7a-azadibenzo[a,e]azulene-9-carboxylic acid monohydrochloride]", "IC50": "< 100"}, {"compound": "COc1ccc2c(c1)OCCn1c-2c(C2CCCCC2)c2ccc(C(=O)NC3(c4nc5ccc(C(C)(C)C(=O)O)cc5[nH]4)CCC3)cc21", "note": "[Example 2-445, 2-(2-{1-[(12-cyclohexyl-3-methoxy-6,7-dihydro-5-oxa-7a-azadibenzo[a,e]azulene-9-carbonyl)amino]cyclobutyl}-3H-benzimidazol-5-yl)-2-methylpropionic acid]", "IC50": "< 100"}, {"compound": "Cc1nc(C(C)(C)NC(=O)c2ccc3c(C4CCCCC4)c4n(c3c2)CCOc2ccccc2-4)[nH]c1C", "note": "[Example 2-258, N-[1-(4,5-dimethyl-1H-imidazol-2-yl)-1-methylethyl]-12-cyclohexyl-6,7-dihydro-5-oxa-7a-azadibenzo[a,e]azulene-9-carboxamide]", "IC50": "< 100"}, {"compound": "COC(=O)C(N)Cc1ccc(C(C)(C)NC(=O)c2ccc3c(C4CCCCC4)c4n(c3c2)CCOc2cc(OC)ccc2-4)cc1", "note": "(stereo not drawn) [Example 2-442, methyl 2-amino-3-(4-{1-[(12-cyclohexyl-3-methoxy-6,7-dihydro-5-oxa-7a-azadibenzo[a,e]azulene-9-carbonyl)amino]-1-methylethyl}phenyl)propionate monohydrochloride]", "IC50": "< 100"}, {"compound": "CC(C)(NC(=O)c1ccc2c(C3CCCCC3)c3n(c2c1)CCOc1ccccc1-3)C(=O)N1CCN(c2ccccc2)CC1", "note": "[Example 2-291, N-[1,1-dimethyl-2-oxo-2-(4-phenylpiperazin-1-yl)ethyl]-12-cyclohexyl-6,7-dihydro-5-oxa-7a-azadibenzo[a,e]azulene-9-carboxamide]", "IC50": "< 100"}, {"compound": "CCC1CN(CCN2CCn3c(c(C4CCCCC4)c4ccc(C(=O)O)cc43)-c3ccccc32)CCO1", "note": "(stereo not drawn) [Example 1-256, 13-cyclohexyl-5-[2-(2-ethylmorpholin-4-yl)ethyl]-6,7-dihydro-5H-benzo[5,6][1,4]diazepino[7,1-a]indole-10-carboxylic acid dihydrochloride]", "IC50": "< 100"}, {"compound": "COC1CCCN(CCN2CCn3c(c(C4CCCCC4)c4ccc(C(=O)O)cc43)-c3ccc(Cl)cc32)C1", "note": "(stereo not drawn) [Example 1-265, 3-chloro-13-cyclohexyl-5-[2-(3-methoxypiperidin-1-yl)ethyl]-6,7-dihydro-5H-benzo[5,6][1,4]diazepino[7,1-a]indole-10-carboxylic acid dihydrochloride]", "IC50": "< 100"}, {"compound": "COc1ccc2c(c1)OCCn1c-2c(C2CCCCC2)c2ccc(C(=O)NC3(C(=O)Nc4ccc5nc[nH]c5c4)CCC3)cc21", "note": "[Example 2-448, N-[1-(3H-benzimidazol-5-ylcarbamoyl)cyclobutyl]-12-cyclohexyl-3-methoxy-6,7-dihydro-5-oxa-7a-azadibenzo[a,e]azulene-9-carboxamide]", "IC50": "< 100"}, {"compound": "CCC1CCCN(CCN2CCn3c(c(C4CCCCC4)c4ccc(C(=O)O)cc43)-c3ccccc32)C1", "note": "(stereo not drawn) [Example 1-190, 13-cyclohexyl-5-[2-(3-ethylpiperidin-1-yl)ethyl]-6,7-dihydro-5H-benzo[5,6][1,4]diazepino[7,1-a]indole-10-carboxylic acid dihydrochloride]", "IC50": "< 100"}, {"compound": "CCn1c([C@H](Cc2ccc(O)cc2)NC(=O)c2ccc3c(C4CCCCC4)c4n(c3c2)CCOc2cc(OC)ccc2-4)n[nH]c1=O", "note": "[Example 2-533, N—[(S)-1-(4-ethyl-5-oxo-4,5-dihydro-1H-1,2,4-triazol-3-yl)-2-(4-hydroxyphenyl)ethyl]-12-cyclohexyl-3-methoxy-6,7-dihydro-5-oxa-7a-azadibenzo[a,e]azulene-9-carboxamide]", "IC50": "< 100"}, {"compound": "Cc1ccc2c(c1)N(CCN1CCCC(C(C)C)C1)CCn1c-2c(C2CCCCC2)c2ccc(C(=O)O)cc21", "note": "(stereo not drawn) [Example 1-365, 13-cyclohexyl-5-[2-(3-isopropylpiperidin-1-yl)ethyl]-3-methyl-6,7-dihydro-5H-benzo[5,6][1,4]diazepino[7,1-a]indole-10-carboxylic acid dihydrochloride]", "IC50": "< 100"}, {"compound": "O=C(O)c1ccc2c(C3CCCCC3)c3n(c2c1)CCN(CCN1CCOCC1)c1cc(F)ccc1-3", "note": "[Example 1-107, 13-cyclohexyl-3-fluoro-5-[2-(morpholin-4-yl)ethyl]-6,7-dihydro-5H-benzo[5,6][1,4]diazepino[7,1-a]indole-10-carboxylic acid dihydrochloride]", "IC50": "< 100"}, {"compound": "CC(C)(NC(=O)c1ccc2c(C3CCCCC3)c3n(c2c1)CCOc1ccccc1-3)C(=O)NCCc1ccc(O)cc1", "note": "[Example 2-203, N-{1-[2-(4-hydroxyphenyl)ethylcarbamoyl]-1-methylethyl}-12-cyclohexyl-6,7-dihydro-5-oxa-7a-azadibenzo[a,e]azulene-9-carboxamide]", "IC50": "< 100"}, {"compound": "CN(C)c1cccc2c1OCCn1c-2c(C2CCCCC2)c2ccc(C(=O)O)cc21", "note": "[Example 2-483, 12-cyclohexyl-4-dimethylamino-6,7-dihydro-5-oxa-7a-azadibenzo[a,e]azulene-9-carboxylic acid]", "IC50": "< 100"}, {"compound": "CC(C)(Cc1ccc(C(=O)O)cc1)NC(=O)c1ccc2c(C3CCCCC3)c3n(c2c1)CCOc1ccccc1-3", "note": "[Example 2-216, 4-{2-[(12-cyclohexyl-6,7-dihydro-5-oxa-7a-azadibenzo[a,e]azulene-9-carbonyl)amino]-2-methylpropyl}benzoic acid]", "IC50": "100 to 1000"}, {"compound": "CCOCC1CCCN(CCN2CCn3c(c(C4CCCCC4)c4ccc(C(=O)O)cc43)-c3ccccc32)C1", "note": "(stereo not drawn) [Example 1-387, 13-cyclohexyl-5-[2-(3-ethoxymethylpiperidin-1-yl)ethyl]-6,7-dihydro-5H-benzo[5,6][1,4]diazepino[7,1-a]indole-10-carboxylic acid dihydrochloride]", "IC50": "< 100"}, {"compound": "CC[N+](CC)(CC)Cc1ccc(CC(NC(=O)c2ccc3c(C4CCCCC4)c4n(c3c2)CCOc2cc(OC)ccc2-4)C(=O)OC)cc1", "note": "(stereo not drawn) [Example 2-539, N-(4-{2-[(12-cyclohexyl-3-methoxy-6,7-dihydro-5-oxa-7a-azadibenzo[a,e]azulene-9-carbonyl)amino]-2-(methoxycarbonyl)ethyl}benzyl)-N,N,N-triethylammonium chloride]", "IC50": "< 100"}, {"compound": "CC(C)(NC(=O)c1ccc2c(C3CCCCC3)c3n(c2c1)CCOc1ccccc1-3)C(=O)Nc1ccc(O)cc1", "note": "[Example 2-202, N-[1-(4-hydroxyphenylcarbamoyl)-1-methylethyl]-12-cyclohexyl-6,7-dihydro-5-oxa-7a-azadibenzo[a,e]azulene-9-carboxamide]", "IC50": "< 100"}]}, {"target": "T1, HCV polymerase", "assay": "biochemical", "set-up": "species or system HCV BK strain", "conditions": "read-out: HCV polymerase inhibitory activity IC50; 25° C., 90 min; [5,6-3H]UTP incorporation into RNA", "method_in_brief": "as §1", "units": {"IC50": "nM"}, "values": [{"compound": "O=C(O)c1ccc2c(C3CCCCC3)c3n(c2c1)CCN(CCN1CCCCCCC1)c1ccccc1-3", "note": "[Example 1-423, 5-[2-(azocan-1-yl)ethyl]-13-cyclohexyl-6,7-dihydro-5H-benzo[5,6][1,4]diazepino[7,1-a]indole-10-carboxylic acid dihydrochloride]", "IC50": "< 100"}]}]}
